Results taken from patent US5401490A, “Markers of tissue hypoxia” (priority 1989, dated 1995).
Where two headings read alike, the source gives them in different places.

Experiment: Tissue distribution of radioactivity after intravenous injection
Assay type: in vivo, BALB/C mice
Conditions: mouse, iv, i.v.; for tissue uptake at 0.5 h: 0.50 h
Excerpt: Tables 1 and 2 show the percent of injected IAZG and IAZA respectively per gram of wet tissue for selected tissues excised from BALB/C mice bearing EMT-6 tumors. This tumor model is known to have a high hypoxic fraction (0.33) (16). […] Hepatobiliary excretion may play a role in blood clearance as evidenced by elevated liver radioactivity and the appearance of activity in the intestine. Some oxidative or reductive metabolites of the 2-nitroimidazoles may also become bound to liver tissue, as was postulated in an in vivo study with ^14 C-MISO (6). This supposition is supported by the persistence of liver radioactivity at longer time periods. […] At 8 and 24 hours thyroid levels of IAZG are 7.2 and 30.9% of the total body activity and for IAZA they are 7.9 and 33.8% of total body activity. EXAMPLE 11 TISSUE DISTRIBUTION AND EXCRETION Tumor propagation of EMT-6 tumors in BALB/C mice was accomplished by subcutaneous injection of a cell suspension (10^5 cells in 0.1 mL) as described previously (10). Tumors reached about 10 mm in diameter (≈0.5 g) at 12 to 14 days, at which time each animal was given a bolus intravenous injection of ^125 I-labelled test drug via the tail vein (40 to 60 kBq in 0.1 mL). At set time periods the animals were asphyxiated with CO2 and exsanguinated via cardiac puncture. Tissues were dissected, weighed wet into vials and counted for ^125 I-activity. Whole-body activity was determined by summation of total activity in tissues and in residual carcass, and blood activity was determined from the blood aliquot, assuming blood to be 6.5% of the total body weight. EXAMPLE 12 Male BALB/c mice (20-25 g) were inoculated subcutaneously in the left flank with a suspension of murine EMT-6 cells (10^5 cells in 0.1 mL) (14). After 12 to 14 days, when the tumors reached the desired size (8-10 mm diameter), each mouse received a single intravenous (iv) injection of ^125 I-IAZA (59 kBq in 0.1 mL). […] Heart, lung, liver, spleen, muscle, bone, thyroid, kidney, stomach, small intestine, tail, tumor and skin were removed upon necropsy, weighed and analyzed for ^125 I using a Beckman Model 8000 gamma scintillation counter. The remaining carcass mass was also weighed and radioassayed.

[1] = blood, read-out: Percent of Injected Dose per Gram, Blood
[2] = intestine, read-out: Percent of Injected Dose per Gram, Intestine
[3] = kidney, read-out: Percent of Injected Dose per Gram, Kidney
[4] = liver, read-out: Percent of Injected Dose per Gram, Liver
[5] = lung, read-out: Percent of Injected Dose per Gram, Lung
[6] = muscle, read-out: Percent of Injected Dose per Gram, Muscle
[7] = stomach, read-out: Percent of Injected Dose per Gram, Stomach
[8] = tumor, read-out: Percent of Injected Dose per Gram, Tumor

SMILES: O=[N+]([O-])c1nccn1[C@@H]1O[C@H](CI)[C@H](O)[C@H](O)[C@H]1O [IAZG, 1-(6-iodo-6-deoxy-β-D-galactopyranosyl)-2-nitroimidazole]
- tissue uptake at 0.25 h [1]: 1.83 ± 0.17 %ID/g
- tissue uptake at 0.5 h [1]: 1.11 ± 0.16 %ID/g
- tissue uptake at 1 h [1]: 0.86 ± 0.26 %ID/g
- tissue uptake at 2 h [1]: 0.53 ± 0.1 %ID/g
- tissue uptake at 4 h [1]: 0.28 ± 0.07 %ID/g
- tissue uptake at 8 h [1]: 0.16 ± 0.03 %ID/g
- tissue uptake at 24 h [1]: 0.06 ± 0.02 %ID/g
- tissue uptake at 0.25 h [2]: 6.82 ± 5.2 %ID/g
- tissue uptake at 0.5 h [2]: 3.65 ± 1.36 %ID/g
- tissue uptake at 1 h [2]: 1.16 ± 0.25 %ID/g
- tissue uptake at 2 h [2]: 0.82 ± 0.45 %ID/g
- tissue uptake at 4 h [2]: 0.29 ± 0.07 %ID/g
- tissue uptake at 8 h [2]: 0.17 ± 0.08 %ID/g
- tissue uptake at 24 h [2]: 0.05 ± 0.02 %ID/g
- tissue uptake at 0.25 h [3]: 15.6 ± 1.15 %ID/g
- tissue uptake at 0.5 h [3]: 8.94 ± 1.2 %ID/g
- tissue uptake at 1 h [3]: 4.56 ± 1.41 %ID/g
- tissue uptake at 2 h [3]: 2.67 ± 0.51 %ID/g
- tissue uptake at 4 h [3]: 1.1 ± 0.29 %ID/g
- tissue uptake at 8 h [3]: 0.4 ± 0.02 %ID/g
- tissue uptake at 24 h [3]: 0.09 ± 0.03 %ID/g
- tissue uptake at 0.25 h [4]: 5.5 ± 0.79 %ID/g
- tissue uptake at 0.5 h [4]: 2.96 ± 0.49 %ID/g
- tissue uptake at 1 h [4]: 1.48 ± 0.24 %ID/g
- tissue uptake at 2 h [4]: 1.4 ± 0.56 %ID/g
- tissue uptake at 4 h [4]: 0.43 ± 0.12 %ID/g
- tissue uptake at 8 h [4]: 0.2 ± 0.02 %ID/g
- tissue uptake at 24 h [4]: 0.08 ± 0.02 %ID/g
- tissue uptake at 0.25 h [5]: 2.77 ± 0.44 %ID/g
- tissue uptake at 0.5 h [5]: 1.46 ± 0.24 %ID/g
- tissue uptake at 1 h [5]: 0.74 ± 0.12 %ID/g
- tissue uptake at 2 h [5]: 0.61 ± 0.17 %ID/g
- tissue uptake at 4 h [5]: 0.33 ± 0.09 %ID/g
- tissue uptake at 8 h [5]: 0.16 ± 0.02 %ID/g
- tissue uptake at 24 h [5]: 0.07 ± 0.01 %ID/g
- tissue uptake at 0.25 h [6]: 1.31 ± 0.21 %ID/g
- tissue uptake at 0.5 h [6]: 0.7 ± 0.18 %ID/g
- tissue uptake at 1 h [6]: 0.37 ± 0.19 %ID/g
- tissue uptake at 2 h [6]: 0.34 ± 0.2 %ID/g
- tissue uptake at 4 h [6]: 0.14 ± 0.03 %ID/g
- tissue uptake at 8 h [6]: 0.06 ± 0.02 %ID/g
- tissue uptake at 24 h [6]: 0.02 ± 0.01 %ID/g
- tissue uptake at 0.25 h [7]: 3.29 ± 1.07 %ID/g
- tissue uptake at 0.5 h [7]: 2.14 ± 1.01 %ID/g
- tissue uptake at 1 h [7]: 1.38 ± 0.42 %ID/g
- tissue uptake at 2 h [7]: 1.49 ± 1.12 %ID/g
- tissue uptake at 4 h [7]: 0.55 ± 0.3 %ID/g
- tissue uptake at 8 h [7]: 0.42 ± 0.35 %ID/g
- tissue uptake at 24 h [7]: 0.06 ± 0.04 %ID/g
- tissue uptake at 0.25 h [8]: 1.75 ± 0.46 %ID/g
- tissue uptake at 0.5 h [8]: 1.45 ± 0.24 %ID/g
- tissue uptake at 1 h [8]: 1.21 ± 0.21 %ID/g
- tissue uptake at 2 h [8]: 0.77 ± 0.17 %ID/g
- tissue uptake at 4 h [8]: 0.43 ± 0.09 %ID/g
- tissue uptake at 8 h [8]: 0.23 ± 0.09 %ID/g
- tissue uptake at 24 h [8]: 0.08 ± 0.01 %ID/g
